Where a SMILES comes first, the peptide text is derived from it. The star is where a group is joined. Cbz = O=C(OCc1ccccc1)*; CH2F = FC*
Legend:
[1] = tested on: endogenous PS2 cleavage in H4 human neuroglioma cells; experiment: Apoptotic cleavage of endogenous PS2 in untransfected H4 cells (staurosporine or etoposide), Western blot
Experimental: H4 human neuroglioma cells were treated with 1 μM STS for timed intervals indicated on the top panels and lysates were analyzed by Western blotting using αPS2Loop along with antibodies to poly(ADP-ribose) polymerase (PARP), CPP32, and HSP70. […] Cells were pre-treated with inhibitors for 1 hour, further incubated in the presence or absence of 2 μM STS (b) or 20 μM etoposide for 18 hours. and lysates were analyzed by Western blotting. […] (e) Dose-response curves of the effect of zVAD-fmk (Δ) and zDEVD-fmk (o) on STS-induced apoptotic cleavage of PS2. Relative amounts of 20 kDa PS2 fragments from the cells co-treated with 1 μM STS (18 hours) plus either zVAD-fmk or zDEVD-fmk were measured by the transmittance analysis of the Western blot as described (Bush, A. I., et al., Ann. Neurol. 32:57-65 (1992)). The amounts of 20 kDa fragment from the cells treated with STS alone were standardized as 100%. With the exception of (d) (4-20% gradient gel), all SDS-PAGE were performed using 16% gels.
(§2) For some experiments, protein quantitation, SDS-PAGE (4-20% or 16%) and Western blotting were carried out as described, supra, with the exception of using the lysis buffer (10 mM Tris-HCl [pH 7.4], 150 mM NaCl, 1% Triton X-100, 0.5% NP-40, 5 mM EDTA plus either 0.3% SDS or 1% Sarkosyl) with protease inhibitors, allowing for the efficient extraction of the 20 kDa C-terminal fragment from the detergent-resistant fractions.

[2] = tested on: generation of alternative 14 kDa PS1-CTF; experiment: Generation of alternative 14 kDa PS1-CTF in inducible H4 cells overexpressing PS1; assay type: cell-based, human; details: PS1-overexpressing cell lines
Experimental: FIG. 11. […] Inducible PS1 cells were generated similar to as described herein. High-(clone 1.22) and low-(clone 1.24) expressing clones were grown in the presence or absence of tetracycline for 24 hours. As similar to those shown for PS2, multiple PS1 CTFs were detected in the PS 1-overproducing cells, including 23 kDa endogenous PS1 CTF (arrow e′), transgene-derived normal cleavage product (arrow f′), and aberrant 14 kDa PS1 fragment. (b, c, d) Cleavage of endogenous PS1 CTF during STS-induced apoptosis. Identical samples used for FIG. 8 were stained with αPS1 Loop. PS1 CTF was further cleaved into smaller 14 kDa fragment during apoptotic process. […] Asterisk indicates non-specific bands.
The point mutations in the potential aspartate cleavage sites of PS2 (D326A and D329A) and control aspartate (D308A) were introduced into a PS2 open reading frame by site-directed mutagenesis using Muta-Gene phagemid kit (BioRad). The inducible construct encoding the full-length PS1 with 3′ FLAG epitope sequence was generated as described for PS2 herein. […]
Next, whether PS1, a closely related homologue of PS2, also undergoes alternative cleavage when overexpressed and/or during apoptosis was tested. […] However, in the clonal cell line expressing lower levels of PS1 (clone IF24), full-length PS1 and the normal CTF were predominantly detected while the alternative 14 kDa CTF fragment was not detectable.

endogenous PS1 cleavage = experiment: Apoptosis-associated cleavage of endogenous PS1 in H4 cells; assay type: cell-based, human; details: STS- or etoposide-induced, FIGS. 11c and 11d
Experimental: FIG. 11. […] Inducible PS1 cells were generated similar to as described herein. High-(clone 1.22) and low-(clone 1.24) expressing clones were grown in the presence or absence of tetracycline for 24 hours. […] Identical samples used for FIG. 8 were stained with αPS1 Loop. […] Asterisk indicates non-specific bands.
Whether endogenous PS1 is cleaved by CP32-like proteases following induction of apoptosis was also tested.

[3] = tested on: full-length 54 kDa PS2 cleavage; experiment: Cleavage of full-length PS2 during etoposide-induced apoptosis in inducible H4 cells (N-terminal FLAG PS2); assay type: cell-based, human; details: increasing concentrations of inhibitor, 20 μM etoposide; FIG. 8
Experimental: FIG. 8. Cleavage of full-length 54 kDa PS2 by a zVAD-sensitive protease activated during etoposide-induced apoptosis. Inducible H4 cells expressing PS2 containing N-terminal FLAG epitope were induced for 12 hours and further incubated with media containing 20 μM etoposide. Alternative (34 kDa NTF) and normal (f; 30 kDa) N-terminal cleavage products detected by anti-FLAG antibody and alternative (20K CTF) and endogenous plus normal C-terminal cleavage products (e/f) detected by αPS2Loop were indicated by arrows.
Thus, whether the alternative PS2-CTF was generated from full-length 54 kDa PS2 during apoptosis was tested. […] The alternative NTF was 34 kDa while the “normal” NTF, labeled as band f in the top panel of FIG. 8, was 30 kDa. The alternative PS2 cleavage fragments were first observed at 3 hours post-treatment with etoposide.

[4] = tested on: generation of the 20 kDa PS2-CTF; experiment: Generation of 20 kDa PS2-CTF in H4 cells overexpressing PS2, Western blot with αPS2Loop; details: FIG. 7d; for generation of the 20 kDa PS2-CTF: cells overexpressing PS2, induced 24 h, inhibitor added at induction
Experimental: Aberrant 20 kDa PS2 C-terminal fragment (CTF) in transfected cells. (a) Detection of the endogenous PS2 CTF in human brain. […] (b) Detection of multiple PS2 CTFs in the inducible H4 cells overexpressing C-terminal epitope-tagged PS2 by Western blotting using αPS2Loop. […] (c) Selective localization of the 20 kDa CTF in the non-ionic detergent-resistant cellular fraction. Wild-type PS2 cells were induced for 48 hours, fractionated into detergent-insoluble/resistant (lane 2) and detergent soluble (lane 3) fractions and wash (lane 4), and then analyzed by Western blotting with αPS2Loop. Total SDS lysates are shown in lane 1. […] The zFA-fmk (cathepsin B inhibitor) was used as a control for fluoromethylketone (fmk) group. […] Inducible PS2 were grown in the presence (Uninduced, left panel) or absence (Induced, right panel) of tetracycline for 24 hours, and inhibitors or solvent (DMSO) were added at the time of the induction.
as §2

[5] = tested on: polyubiquitinated HMW-PS2; experiment: Nickel affinity chromatography of PS2 modified with His-tagged ubiquitin, anti-PS2Loop blot; assay type: cell-based, human; details: induced cells treated with ALLN
Experimental: (§1) FIG. 5. Polyubiquitination and proteasomal degradation of PS2. […] Detergent-soluble (Soluble) and detergent-resistant fractions (Insoluble) were prepared and analyzed by Western blotting. FIG. 5B) immunoprecipitation of ubiquitin-positive high molecular weight forms of PS2 (HMW-PS2) by anti-FLAG antibodies. […] FIG. SC) binding of PS2 modified with epitope-tagged ubiquitin (H6M-Ub) to nickel affinity columns. Plasmid pCW7 encoding wild-type (H6M-Ub) or pCW8 encoding dominant-negative ubiquitin (H6M-UbK48R) was transiently transfected into uninduced PS2 cells (clone WF2). […] Lysates were subjected to nickel affinity chromatography as described herein and bound materials were analyzed by Western blotting using anti-PS2Loop antibodies.
PS2 cells were transiently transfected with ubiquitin constructs either pCW7 (H6M-Ub) or pCW8 (H6M-UbK48R) using LipofectAMINE™ according to the manufacturer's instruction (LifeTtechnologies, Inc.). […] Samples were concentrated by freeze-drying, and PS2 immunoreactivity was detected by Western blotting using anti-PS2Loop antibodies.
To determine whether polyubiquitinated HMW-PS2 serves as a degradation intermediate for the full-length PS2, constructs encoding wild-type (H6M-Ub) and dominant-negative ubiquitin (H6M-UbK48R), tagged with poly((6X)-histidine) were transiently transfected into uninduced cells. […]

polyubiquitinated PS2 = experiment: Immunoprecipitation of ubiquitin-positive HMW-PS2 with anti-FLAG, anti-ubiquitin immunoblot; assay type: cell-based, human; details: 50 μM ALLN; C-terminal FLAG PS2; FIG. 5B
Experimental: as §1
Protein samples were quantiated by the BCA protein assay kit (Pierce). SDS-PAGE was carried out using 4-20% gradient Tris-glycine gels under reducing conditions. Proteins were transferred to polyvinylidene difluoride membrane (Bio-Rad) using a semi-dry electrotransfer system (Hoefer). The blots were blocked with 5% non-fat dry milk in TBST (25 mM Tris (pH 7.6), 137 mM NaCl, 0.15% Tween 20) for 1.5 h, incbated primary antibodies (M2, 3 μg/ml; D-8, 1 to 1000; polyclonal anti-ubiquitin, 1 to 1000; Ubi-1, 1 to 1500) for 1.5 h, and secondary antibodies (horseradish perodixase-conjugated anti-mouse or rabbit antibodies, 1 to 5000) in TBST. […]

Compound	concentration equally effective in inhibiting apoptosis-induced cleavage of PS2 ([1]; 1 μM STS 18 h, relative amount of 20 kDa fragment, FIG. 9e) [µM]	normal processing of PS2 (generation of 25 kDa endogenous fragment) ([1]; H4 cells undergoing apoptosis)	STS-induced or etoposide-induced cleavage of PS2, PARP, and pro-CPP32 ([1]; H4 cells, 2 μM STS or 20 μM etoposide 18 h, FIG. 9b, c)	alternative cleavage of endogenous PS2 during staurosporine-induced or etoposide-induced apoptosis ([1]; H4 cells, inhibitor pre-treatment 1 h, 2 μM STS or 20 μM etoposide 18 h, FIGS. 9b-9d)	generation of alternative 14 kDa PS1-CTF [2]	apoptosis-associated cleavage of endogenous PS1 (endogenous PS1 cleavage)	apoptosis-associated cleavage of endogenous PS1 (endogenous PS1 cleavage; listed as zVAD)	generation of both alternative PS2 cleavage products [3]	generation of the 20 kDa PS2-CTF [4]	generation of the 20 kDa PS2-CTF ([4]; listed as zVAD)	levels of the endogenous 25 kDa CTF, the 26 kDa transgene-derived CTF, or other PS2 species ([4]; cells overexpressing PS2)	polyubiquitinated HMW-PS2 bound to nickel column ([5]; transfected with H6M-Ub, FIG. 5C lane 10)	polyubiquitinated HMW-PS2 bound to nickel column ([5]; transfected with dominant-negative H6M-UbK48R, FIG. 5C lane 12)	Ubiquitin-positive HMW-PS2 (polyubiquitinated PS2)
COC(=O)C[C@H](NC(=O)[C@H](C)NC(=O)[C@@H](NC(=O)OCc1ccccc1)C(C)C)C(=O)CF [zVAD-fmk] (Cbz-Val-Ala-Asp(OMe)-CH2F)	25	no effect on normal processing of PS2	Inhibition of STS-induced (b) or etoposide-induced (c) cleavage of PS2, PARP, and pro-CPP32	specifically blocked	blocked	Inhibition of STS-induced (c) and etoposide-induced (d) PS1 cleavage	blocked	inhibited the generation of both alternative cleavage products	blocked	blocked the generation of the 20 kDa PS2-CTF	no effect			
N-acetyl-L-leucinal-L-norleucinal [ALLN]												abundant amounts of polyubiquitinated HMW-PS2	a small amount of polyubiquitinated HMW-PS2	significantly increased

From patent US6887983B2, “Purified 20 kDA presenilin 2 C-terminal fragment and methods of screening for compounds that inhibit proteolysis of presenilin 2” (The General Hospital Corporation, priority 1997, dated 2005)
